# Counter-ions that a name gives are not always drawn.
# What was measured:
# Experiment in all cases: viability inhibition at highest dose (% inhibition); higher = more growth inhibition
# [1] = system: MCF-7 Tam1; conditions: 4-OH-tamoxifen in medium 1 µM; 72 h
# Protocol: (§1)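 Percent inhibition of viability (CellTiter-Glo, 72 h) at the highest tested concentration (D5), normalised to DMSO (0%) and 100 µM benzethonium chloride (100%). Resistant lines and the 'in 1µM tamoxifen' arms were tested in 1 µM 4-OH-tamoxifen.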
# [2] = system: MCF-7; conditions: 72 h
# Protocol: as §1
# [3] = system: ZR-75-1 Tam1; conditions: 4-OH-tamoxifen in medium 1 µM; 72 h
# Protocol: as §1
# [4] = system: BT-474 Tam1; conditions: 4-OH-tamoxifen in medium 1 µM; 72 h
# Protocol: as §1
# [5] = system: T-47D; conditions: 72 h
# Protocol: as §1
# [6] = system: T-47D Tam2; conditions: 4-OH-tamoxifen in medium 1 µM; 72 h
# Protocol: as §1
# [7] = system: BT-474 Tam2; conditions: 4-OH-tamoxifen in medium 1 µM; 72 h
# Protocol: as §1
# [8] = system: BT-474; conditions: 72 h
# Protocol: as §1
# [9] = system: ZR-75-1; conditions: 72 h
# Protocol: as §1
# [10] = system: ZR-75-1 Tam2; conditions: 4-OH-tamoxifen in medium 1 µM; 72 h
# Protocol: as §1
# [11] = system: T-47D Tam1; conditions: 4-OH-tamoxifen in medium 1 µM; 72 h
# Protocol: as §1
SMILES,viability inhibition at highest dose [1],viability inhibition at highest dose ([2]; 4-OH-tamoxifen in medium 0 µM),viability inhibition at highest dose ([2]; 4-OH-tamoxifen in medium 1 µM),viability inhibition at highest dose [3],viability inhibition at highest dose [4],viability inhibition at highest dose ([5]; 4-OH-tamoxifen in medium 0 µM),viability inhibition at highest dose ([5]; 4-OH-tamoxifen in medium 1 µM),viability inhibition at highest dose [6],viability inhibition at highest dose [7],viability inhibition at highest dose ([8]; 4-OH-tamoxifen in medium 0 µM),viability inhibition at highest dose ([8]; 4-OH-tamoxifen in medium 1 µM),viability inhibition at highest dose ([9]; 4-OH-tamoxifen in medium 0 µM),viability inhibition at highest dose ([9]; 4-OH-tamoxifen in medium 1 µM),viability inhibition at highest dose [10],viability inhibition at highest dose [11]
C[C@]1(O)C[C@@H](c2nc(-c3ccc4ccc(-c5ccccc5)nc4c3)c3c(N)nccn32)C1 [Linsitinib (OSI-906)] (drug 10000 nM),38.1,52.5,62.4,12.2,3.26,28.3,33.2,29,7.88,-2.14,21.6,14.6,20.1,16.3,84.2
CO[C@@H]1[C@H](N(C)C(=O)c2ccccc2)C[C@H]2O[C@]1(C)n1c3ccccc3c3c4c(c5c6ccccc6n2c5c31)C(=O)NC4 [Midostaurin (PKC412)] (drug 10000 nM),17.7,18.9,17,-11.5,27.5,18.3,39.4,25.1,19.4,23.7,40.4,-11.7,0.532,-15.6,34.6
CCOc1cc2ncc(C#N)c(Nc3ccc(OCc4ccccn4)c(Cl)c3)c2cc1NC(=O)/C=C/CN(C)C [Neratinib] (drug 1000 nM),8.88,-5.52,24.9,2.29,97.4,19,1.93,32.5,97.1,83.2,95,-13,9.01,9.49,32.5
CCCCC/C=C/C=C1/C(=O)C=C[C@@H]1C/C=C\CCCC(=O)O [15D-PGJ2] (drug 800 nM),-5.28,-3.98,-2.34,-1.15,-6.35,-18.6,-6.02,19.6,-6.87,-7.22,-14.5,-12.7,5.41,-2.77,0.0444
CN1CCC(COc2cnc(-c3cccc(Cn4nc(-c5cccc(C#N)c5)ccc4=O)c3)nc2)CC1 (drug 1000 nM),7.93,-4.34,13.2,0.277,4.43,-10.4,-5.78,-1.11,8.15,2.72,-6.04,-2.72,2.17,-3.94,57.5
Cc1sc2c(c1C)C(c1ccc(Cl)cc1)=N[C@@H](CC(=O)OC(C)(C)C)c1nnc(C)n1-2 [(+)JQ1] (drug 10000 nM),15.2,52.8,59.6,43.3,75,34.3,16.5,29.1,76.6,31.3,68.4,29.8,30.9,37.8,46.9
Cc1ccc(C(=O)Nc2ccc(CN3CCN(C)CC3)c(C(F)(F)F)c2)cc1C#Cc1cnc2cccnn12 (drug 1000 nM),12.7,11.5,25.9,12.3,35.9,20.5,33.7,37.9,6,-2.54,36.2,3.08,12,12,70.1
CS(=O)(=O)N1CCN(Cc2cc3nc(-c4cccc5[nH]ncc45)nc(N4CCOCC4)c3s2)CC1 [Pictilisib (GDC-0941)] (drug 10000 nM),64.4,76.8,81.6,76.9,86.1,68.5,76.6,67.4,82.5,63.6,90.6,64.3,60.7,76.1,70.6
CC(C)C[C@H](NC(=O)[C@H](CCc1ccccc1)NC(=O)CN1CCOCC1)C(=O)N[C@@H](Cc1ccccc1)C(=O)N[C@@H](CC(C)C)C(=O)[C@@]1(C)CO1 [Carfilzomib] (drug 1000 nM),92.7,91.8,96.5,80.2,97.8,86.2,91.1,96.8,93.7,79.9,96.2,76.9,85.7,75.9,96.3
C=C(c1ccc(C(=O)O)cc1)c1cc2c(cc1C)C(C)(C)CCC2(C)C [Bexarotene] (drug 10000 nM),19.2,-1.91,5.85,-2.13,-1.85,13.7,14.2,9.65,0.869,1.74,20.9,15.4,8.83,9.24,25.9
CCN(CC)CCCC(C)Nc1ccnc2cc(Cl)ccc12 (stereo not given) [Chloroquine] (drug 990000 nM),-1.25,-2.81,0.449,0.712,19,-0.514,-3.72,-12.2,7.83,-6.4,-13.3,-2.67,-3.36,6.98,3.21
O=C(/C=C/c1cccnc1)NCCCCC1CCN(C(=O)c2ccccc2)CC1 [Daporinad (FK-866 HCl)] (drug 1000 nM),-5.53,76.6,67.9,-12.7,47.2,92.2,90.2,85.3,17.4,12.2,64.7,-2.09,-11.5,0.891,91.9
COc1cc(Nc2ncc(F)c(Nc3ccc4c(n3)NC(=O)C(C)(C)O4)n2)cc(OC)c1OC [Tamatinib (R406)] (drug 10000 nM),-9.69,-1.78,4.31,0.732,-6.1,-10,-10.3,9.45,-9.51,-9.68,-22.1,-7.27,-4.27,-2.25,14.3
Clc1ccc(C(c2ccccc2Cl)C(Cl)Cl)cc1 (stereo not given) [Mitotane] (drug 10000 nM),-2.99,-8.27,0.312,1.3,4.23,-16.5,-15.2,8.17,3.56,-9.37,-3.54,-16.5,-2.85,-0.971,8.29
CN1CCN(c2ccc3nc(-c4c(N)c5c(F)cccc5[nH]c4=O)[nH]c3c2)CC1 [Dovitinib (CHIR-258)] (drug 10000 nM),-5.66,-32.5,-8.7,0.00734,-12.6,-16.4,-8.28,4.9,-10.4,-10.4,-18.2,-10.6,-9.07,-6.37,-4.27
CC(=O)O[C@H]1C(=O)[C@@]2(C)[C@H]([C@H](OC(=O)c3ccccc3)[C@]3(O)C[C@H](OC(=O)[C@H](O)[C@@H](NC(=O)c4ccccc4)c4ccccc4)C(C)=C1C3(C)C)[C@]1(OC(C)=O)CO[C@@H]1C[C@@H]2O [Paclitaxel] (drug 1000 nM),-17.1,28.8,25.8,4.53,35.2,47,15.8,35.9,25.5,42.7,55.7,26.9,4.99,0.492,26
N#Cc1ccc(COC[C@H]2O[C@@H](n3c(NCc4ccc(Cl)c(Cl)c4)nc4c(N)ncnc43)[C@H](O)[C@@H]2O)cc1 (drug 10000 nM),25.6,46.5,49.6,46.4,49.5,42.5,29,34.5,38.6,20.7,65.8,55.3,49.5,51.2,48
CN(C)CCOc1ccc(/C(=C(/CCCl)c2ccccc2)c2ccccc2)cc1 [Toremifene (citrate)] (drug 10000 nM),35.5,19.2,69.3,18.3,95.2,9.04,1.56,62,99.1,25.6,82.9,3.59,24.4,25.1,45.2
O=C1NC(=O)[C@@H](c2cn3c4c(cccc24)CCC3)[C@@H]1c1c[nH]c2ccccc12 [Tivatinib (ARQ 197)] (drug 1000 nM),-6.15,27.5,18.4,5.46,16.1,43.2,7.95,27.8,10.4,34.3,43.9,19.6,10.3,8.59,26.7
O=C1CN2Cc3c(ccc(Cl)c3Cl)N=C2N1 [Anagrelide] (drug 10000 nM),-9.28,-21.2,2.74,0.528,2.18,-25.6,-12.9,-2.05,3.44,-9.3,-22.2,-12.6,-4.05,-5.88,8.7
NC(=O)NO [Hydroxyurea] (drug 100000 nM),1.25,-13.2,12.6,2.07,6.52,-10.4,7.44,1.81,5.16,-6.12,14.5,-5.61,3.11,-8.32,-2.99
N[C@@H](CSC(c1ccccc1)(c1ccccc1)c1ccccc1)C(=O)O [S-trityl-L-cysteine] (drug 40000 nM),-5.14,0.988,18.1,4.16,23.3,2.31,4.34,4.25,-5.53,-1.05,23.9,9.84,13,3.17,4.09
O=NN(CCCl)C(=O)NC1CCCCC1 [Lomustine] (drug 10000 nM),-10.9,12.6,13.1,-0.686,0.268,-10.8,-1.44,7.26,-2.72,-2.85,4.76,-11.7,-5.51,-14.9,-5.12
C=CCNC1=C2C[C@@H](C)C[C@H](OC)[C@H](O)[C@@H](C)/C=C(\C)[C@H](OC(N)=O)[C@@H](OC)/C=C\C=C(/C)C(=O)NC(=CC1=O)C2=O [Tanespimycin  (17-AAG)] (drug 10000 nM),35.7,70,51.1,45.8,74.9,55.6,43.3,43.5,74.3,52.1,81.8,31,45.4,48.8,43.6
CCc1c2c(nc3ccc(OC(=O)N4CCC(N5CCCCC5)CC4)cc13)-c1cc3c(c(=O)n1C2)COC(=O)[C@]3(O)CC [Irinotecan] (drug 10000 nM),-8.36,23.7,23.7,35,-9.22,42.8,-0.292,23.3,-11,-20.2,-25.4,41.6,30,44.3,34.4
CN(C)CCN1C(=O)c2cccc3cc(N)cc(c23)C1=O [Amonafide] (drug 10000 nM),7.15,51.1,20.4,12.9,-18.4,23.6,-12,11.3,-15.7,-11.5,-35.2,35.4,17.1,23.1,5.27

# From the supplement of paper PMC4932681
